Assay results published in patent US11931424B2, “Combination MCL-1 inhibitors with anti-body drug conjugates” (Gilead Sciences, Inc., priority 2021, dated 2024).
Counter-ions that a name gives are not always drawn.

Tested on: panel of breast cancer cell lines
Test: Compound A with targeted agents and chemotherapies, 72-hour in vitro proliferation assays
Format: cell-based
Settings: 72-hour proliferation
[1] = AU565 cell line, compound A × partner
[2] = BT-20 cell line, compound A × partner
[3] = BT-474 cell line, compound A × partner
[4] = BT-549 cell line, compound A × partner
[5] = CAL-51 cell line, compound A × partner
[6] = CAL-85-1 cell line, compound A × partner
[7] = CAL-148 cell line, compound A × partner
[8] = CAMA-1 cell line, compound A × partner
[9] = DU-4475 cell line, compound A × partner
[10] = EVSA-T cell line, compound A × partner
[11] = MCF7 cells, Compound A × partner agent
[12] = MDA-MB-175-VII cells, Compound A × partner agent
[13] = MDA-MB-231 cells, Compound A × partner agent
[14] = MDA-MB-361 cells, Compound A × partner agent
[15] = MDA-MB-436 cells, Compound A × partner agent
[16] = MDA-MB-453 cells, Compound A × partner agent
[17] = MDA-MB-468 cells, Compound A × partner agent
[18] = SUM159PT cells, combination of compound A with the named agent
[19] = T47D cells, combination of compound A with the named agent
[20] = ZR-75-1 cells, combination of compound A with the named agent
[21] = ZR-75-30 cells, combination of compound A with the named agent

SMILES	Best CI [1]	Best CI [2]	Best CI [3]	Best CI [4]	Best CI [5]	Best CI [6]	Best CI [7]	Best CI [8]	Best CI [9]	Best CI [10]	Best CI (HCC38, compound A × partner)	Best CI (HCC70, compound A × partner)	Best CI (HCC1143, compound A × partner)	Best CI (HCC1569, compound A × partner)	Best CI (HCC1806, compound A × partner)	Best CI (HCC1937, compound A × partner)	Best CI (HCC1954, compound A × partner)	Best CI (HCC2218, compound A × partner)	Best CI (HDQ-P1, compound A × partner)	Best CI (HMC-1-8, compound A × partner)	further results
CC/C(=C(\c1ccccc1)c1ccc(OCCN(C)C)cc1)c1ccccc1 [Tamoxifen Citrate]	0.63	1.22	0.67	0.42	1.06	0.49	0.69	0.27	0.80	0.68	0.98	0.50	0.19	0.50	0.84	1.02	0.18	0.45	0.94	0.58	Best CI (JIMT-1, compound A × partner): 0.38; Best CI (KPL-1, compound A × partner): 0.54; Best CI [11]: 0.41; Best CI [12]: 0.36; Best CI [13]: 1.06; Best CI [14]: 0.48; Best CI [15]: 0.30; Best CI [16]: 0.45; Best CI [17]: 0.61; Best CI (SK-BR-3 cells, combination of compound A with the named agent): 0.66; Best CI [18]: 0.20; Best CI [19]: 0.42; Best CI [20]: 0.99; Best CI [21]: 1.00
CS(=O)(=O)CCNCc1ccc(-c2ccc3ncnc(Nc4ccc(OCc5cccc(F)c5)c(Cl)c4)c3c2)o1 [Lapatinib Ditosylate]	0.44	0.18	0.02	0.45	1.14	0.58	0.38	0.90	0.65	0.77	0.87	0.35	0.54	0.53	0.74	1.22	0.07	0.02	0.87	0.50	Best CI (CAL-120 cell line, compound A × partner): 1.36; Best CI (JIMT-1, compound A × partner): 0.29; Best CI (KPL-1, compound A × partner): 0.65; Best CI [11]: 0.34; Best CI [12]: 0.32; Best CI [13]: 0.77; Best CI [14]: 0.87; Best CI [15]: 0.51; Best CI [16]: 0.45; Best CI [17]: 0.36; Best CI (SK-BR-3 cells, Compound A × partner agent): 0.15; Best CI [18]: 1.37; Best CI [19]: 0.41; Best CI [20]: 0.73; Best CI [21]: 0.31
